These are literature values, as cited in paper PMC10321319 (Nature, 2022).

A word on the MIC: it is the smallest concentration in the dilution series that meets the test's criterion for growth inhibition.

Values after ≈ are worked out from the molar mass of the structure shown.

In one data set the test system is A. baumannii 0286. The following applies: XDR A. baumannii 0286, mcr-1 −; ref CDC & FDA Antibiotic Resistant Isolate Bank; cited from earlier work.
For a further data set, the system named is A. baumannii 0295. The following applies: XDR A. baumannii 0295, mcr-1 −; ref CDC & FDA Antibiotic Resistant Isolate Bank; cited from earlier work.
In another data set the test system is A. baumannii 0301. The following applies: XDR A. baumannii 0301, mcr-1 −; ref CDC & FDA Antibiotic Resistant Isolate Bank; cited from earlier work.
The test system of the next data set is A. baumannii 0296. The following applies: XDR A. baumannii 0296, mcr-1 −; ref CDC & FDA Antibiotic Resistant Isolate Bank; cited from earlier work.
The subject of a further data set is A. baumannii 0287. The following applies: XDR A. baumannii 0287, mcr-1 −; ref CDC & FDA Antibiotic Resistant Isolate Bank; cited from earlier work.
In another data set the test system is A. baumannii 0282. The following applies: XDR A. baumannii 0282, mcr-1 −; ref CDC & FDA Antibiotic Resistant Isolate Bank; cited from earlier work.

For the compound `NCC[C@H](O)C(=O)N[C@@H]1C[C@H](N)[C@@H](O[C@H]2O[C@H](CN)[C@@H](O)[C@H](O)[C@H]2O)[C@H](O)[C@H]1O[C@H]1O[C@H](CO)[C@@H](O)[C@H](N)[C@H]1O` [Amikacin], the MIC is above 64 µg/mL in the data set on A. baumannii 0286; 4 µg/mL (≈ 6.83 µM) in the data set with A. baumannii 0295; 64 µg/mL (≈ 109 µM) in the data set on A. baumannii 0301; above 64 µg/mL in the data set on A. baumannii 0296; 32 µg/mL (≈ 54.6 µM) in the data set on A. baumannii 0287; above 64 µg/mL with A. baumannii 0282.

For `CC1(C)S[C@@H]2[C@H](NC(=O)[C@H](N)c3ccccc3)C(=O)N2[C@H]1C(=O)O` [Ampicillin], the MIC in the data set with A. baumannii 0286 was 32 µg/mL (≈ 91.6 µM); with A. baumannii 0295, above 32 µg/mL; with A. baumannii 0301, above 32 µg/mL; with A. baumannii 0296, above 32 µg/mL; in the data set with A. baumannii 0287, above 32 µg/mL; in the data set with A. baumannii 0282, above 32 µg/mL.

On to `CO/N=C(\C(=O)N[C@@H]1C(=O)N2C(C(=O)[O-])=C(C[N+]3(C)CCCC3)CS[C@H]12)c1csc(N)n1` [Cefepime], for which the MIC in the data set on A. baumannii 0286 was 32 µg/mL (≈ 66.6 µM); in the data set with A. baumannii 0295, above 32 µg/mL; in the data set with A. baumannii 0301, above 32 µg/mL; in the data set with A. baumannii 0296, above 32 µg/mL; in the data set on A. baumannii 0287, 32 µg/mL (≈ 66.6 µM); in the data set on A. baumannii 0282 it was above 32 µg/mL.

As to `CO/N=C(\C(=O)N[C@@H]1C(=O)N2C(C(=O)O)=C(COC(C)=O)CS[C@H]12)c1csc(N)n1` [Cefotaxime], the MIC in the data set with A. baumannii 0286, with A. baumannii 0295, with A. baumannii 0301, in the data set on A. baumannii 0296, with A. baumannii 0287 and in the data set with A. baumannii 0282 was above 64 µg/mL throughout.

For the compound `CC(C)(O/N=C(\C(=O)N[C@@H]1C(=O)N2C(C(=O)[O-])=C(C[n+]3ccccc3)CS[C@H]12)c1csc(N)n1)C(=O)O` [Ceftazidime], the MIC is 128 µg/mL (≈ 234 µM) in the data set on A. baumannii 0286; above 128 µg/mL in the data set on A. baumannii 0295; 128 µg/mL (≈ 234 µM) with A. baumannii 0301; above 128 µg/mL in the data set with A. baumannii 0296; 128 µg/mL (≈ 234 µM) in the data set with A. baumannii 0287; above 128 µg/mL with A. baumannii 0282.

As to `CO/N=C(\C(=O)N[C@@H]1C(=O)N2C(C(=O)O)=C(CSc3nc(=O)c(=O)[nH]n3C)CS[C@H]12)c1csc(N)n1` [Ceftriaxone], the MIC in the data set on A. baumannii 0286, with A. baumannii 0295, in the data set with A. baumannii 0301, in the data set with A. baumannii 0296, in the data set on A. baumannii 0287 and in the data set with A. baumannii 0282 was above 32 µg/mL each time.

With `O=C(O)c1cn(C2CC2)c2cc(N3CCNCC3)c(F)cc2c1=O` [Ciprofloxacin], the minimum inhibitory concentration (MIC) in the data set with A. baumannii 0286, with A. baumannii 0295, with A. baumannii 0301, with A. baumannii 0296, in the data set on A. baumannii 0287 and with A. baumannii 0282 was above 8 µg/mL in each case.

As to `C[C@@H](O)[C@H]1C(=O)N2C(C(=O)O)=C(S[C@@H]3CN[C@H](CNS(N)(=O)=O)C3)[C@H](C)[C@H]12` [Doripenem], the MIC in the data set on A. baumannii 0286, in the data set with A. baumannii 0295, in the data set with A. baumannii 0301, in the data set with A. baumannii 0296, with A. baumannii 0287 and in the data set on A. baumannii 0282 was above 8 µg/mL in each case.

As to `CNC(C)C1CCC(N)C(OC2C(N)CC(N)C(OC3OCC(C)(O)C(NC)C3O)C2O)O1` (stereo not shown) [Gentamicin], the minimal inhibitory concentration (MIC) in the data set with A. baumannii 0286 was above 16 µg/mL; in the data set with A. baumannii 0295, 4 µg/mL (≈ 8.38 µM); in the data set on A. baumannii 0301, 8 µg/mL (≈ 16.8 µM); in the data set on A. baumannii 0296, above 16 µg/mL; in the data set on A. baumannii 0287 it was 4 µg/mL (≈ 8.38 µM); with A. baumannii 0282, above 16 µg/mL.

As to `C[C@@H](O)[C@H]1C(=O)N2C(C(=O)O)=C(SCCN=CN)C[C@H]12` [Imipenem], the MIC in the data set with A. baumannii 0286 was above 64 µg/mL; in the data set with A. baumannii 0295, above 64 µg/mL; in the data set with A. baumannii 0301 it was above 64 µg/mL; in the data set with A. baumannii 0296 it was 64 µg/mL (≈ 214 µM); with A. baumannii 0287, 64 µg/mL (≈ 214 µM); in the data set with A. baumannii 0282, 64 µg/mL (≈ 214 µM).

On to `C[C@H]1COc2c(N3CCN(C)CC3)c(F)cc3c(=O)c(C(=O)O)cn1c23` [Levofloxacin], for which the minimum inhibitory concentration (MIC) was 8 µg/mL (≈ 22.1 µM) in the data set with A. baumannii 0286; above 8 µg/mL in the data set with A. baumannii 0295; above 8 µg/mL with A. baumannii 0301; above 8 µg/mL with A. baumannii 0296; 8 µg/mL (≈ 22.1 µM) with A. baumannii 0287; 8 µg/mL (≈ 22.1 µM) with A. baumannii 0282.

Take `C[C@@H](O)[C@H]1C(=O)N2C(C(=O)O)=C(S[C@@H]3CN[C@H](C(=O)N(C)C)C3)[C@H](C)[C@H]12` [Meropenem]: the MIC with A. baumannii 0286, in the data set with A. baumannii 0295, with A. baumannii 0301, with A. baumannii 0296, with A. baumannii 0287 and in the data set with A. baumannii 0282 was above 8 µg/mL in each case.

Take `CN(C)c1ccc(O)c2c1C[C@H]1C[C@H]3[C@H](N(C)C)C(O)=C(C(N)=O)C(=O)[C@@]3(O)C(O)=C1C2=O` [Minocycline]: the MIC with A. baumannii 0286 was 8 µg/mL (≈ 17.5 µM); in the data set on A. baumannii 0295, 16 µg/mL (≈ 35 µM); in the data set on A. baumannii 0301, 16 µg/mL (≈ 35 µM); in the data set with A. baumannii 0296 it was “<=4 μg/ml”; in the data set with A. baumannii 0287, “<=4 μg/ml”; with A. baumannii 0282, 8 µg/mL (≈ 17.5 µM).

In the case of `CCN1CCN(C(=O)N[C@@H](C(=O)N[C@@H]2C(=O)N3[C@@H]2SC(C)(C)[C@@H]3C(=O)O)c2ccccc2)C(=O)C1=O` [Piperacillin], the MIC with A. baumannii 0286, in the data set on A. baumannii 0295, in the data set with A. baumannii 0301, in the data set with A. baumannii 0296, with A. baumannii 0287 and with A. baumannii 0282 was above 128 µg/mL each time.

Take `CN(C)[C@@H]1C(O)=C(C(N)=O)C(=O)[C@@]2(O)C(O)=C3C(=O)c4c(O)cccc4[C@@](C)(O)[C@H]3C[C@@H]12` [Tetracycline]: the minimum inhibitory concentration (MIC) in the data set on A. baumannii 0286 is above 32 µg/mL; in the data set on A. baumannii 0295, above 32 µg/mL; in the data set with A. baumannii 0301, above 32 µg/mL; in the data set with A. baumannii 0296, 32 µg/mL (≈ 72 µM); in the data set with A. baumannii 0287 it was above 32 µg/mL; with A. baumannii 0282, above 32 µg/mL.

Consider `CN(C)c1cc(NC(=O)CNC(C)(C)C)c(O)c2c1C[C@H]1C[C@H]3[C@H](N(C)C)C(O)=C(C(N)=O)C(=O)[C@@]3(O)C(O)=C1C2=O` [Tigecycline], for which the minimal inhibitory concentration (MIC) with A. baumannii 0295 and in the data set on A. baumannii 0301 was 4 µg/mL (≈ 6.83 µM) throughout.

For `NC[C@H]1O[C@H](O[C@H]2[C@H](O)[C@@H](O[C@H]3O[C@H](CO)[C@@H](O)[C@H](N)[C@H]3O)[C@H](N)C[C@@H]2N)[C@H](N)C[C@@H]1O` [Tobramycin], the minimum inhibitory concentration (MIC) in the data set on A. baumannii 0286, in the data set with A. baumannii 0301, with A. baumannii 0296, with A. baumannii 0287 and with A. baumannii 0282 was above 16 µg/mL each time.

For the compound `COc1cc(Cc2cnc(N)nc2N)cc(OC)c1OC` [Trimethoprim], the MIC in the data set on A. baumannii 0286, in the data set on A. baumannii 0295, in the data set on A. baumannii 0301, with A. baumannii 0296, in the data set with A. baumannii 0287 and in the data set on A. baumannii 0282 was above 8 µg/mL throughout.
